Reference: PubChem BioAssay AID179 (DTP/NCI, 2004)
The source made the active and inactive calls.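 Rule for the calls: active = compounds giving half or more protection of infected cells from virus-caused growth loss, again on retest; inactive = the rest.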

Tested on: CEM cells HIV-1 protection, formazan growth assay
Test: NCI AIDS Antiviral Assay
Details: for IC50: measured here: growth of uninfected CEM cells
Summary of the method: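 Screen of anti-HIV-1 activity in human CEM cells using a formazan-based growth measurement at five drug concentrations. Hits with 50% or greater protection were repeated, and confirmation required reproducible complete protection.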

Row | SMILES | EC50 [µM] | IC50 [µM] | outcome
1 | Cc1ccc(S(=O)(=O)N/N=C(\CCN2CCCC2)CC(c2ccccc2)c2c(O)c3ccccc3oc2=O)cc1 (stereo unspecified) | > 12 | > 12 | 
2 | O=C1N(c2ccccc2)C(=O)C2(SC=NN2Cc2ccccc2)N1c1ccccc1 (stereo unspecified) |  |  | inactive
3 | COc1ccc(C2SCC(=O)N2N=C2NC(=O)CC(=O)N2)cc1 (stereo unspecified) | > 200 | > 200 | 
4 | CC1(O)C[C@]23CC[C@H]4[C@@H](CC=C5C[C@@H](O)CC[C@@]54C)[C@@H]2CC[C@H]13 (stereo partly specified) | > 200 | > 200 | 
5 | C#CC(O)Cc1ccc(OC)c2occc12 (stereo unspecified) | > 200 | 117 | 
6 | COC1/C=C/OC2(C)Oc3c(C)c(O)c4c(O)c(c(/C=N/N5C(C)CN(Cc6ccc(C(C)(C)C)cc6)CC5C)c(O)c4c3C2=O)NC(=O)/C(C)=C\C=C\C(C)C(O)C(C)C(O)C(C)C(OC(C)=O)C1C (stereo unspecified) | > 200 | 12.3 | 
7 | CCC1CCN=C(NS(=O)(=O)c2cc(C)c(Cl)cc2S)N1 (stereo unspecified) | > 200 | 39.8 | 
8 | CC(=O)CCC(=O)CC(O)(C(F)(F)F)C(F)(F)F | > 200 | 33.1 | 
9 | COc1ccc(C(O)c2ccc3c(c2)OCO3)cc1 (stereo unspecified) | > 200 | 162 | 
10 | CC(=O)Oc1ccc(CCC(=O)O[C@H](C(=O)O)[C@H](OC(=O)CCc2ccc(OC(C)=O)c(OC(C)=O)c2)C(=O)O)cc1OC(C)=O | > 53.7 | 30.2 | 
11 | O=C1NC2(CCCCC2)C(=O)N1CCN(CCCl)CCCl | > 372 | 269 | 
12 | O=c1[nH]c2ccccc2c(=O)n1/N=C\c1ccccc1O | > 200 | > 200 | 
13 | CN(NC(=O)/C(=C/c1ccc2c(c1)OCO2)NC(=O)c1ccccc1)c1ccnc2cc(Cl)ccc12 | > 200 | 10.5 | 
14 | Cc1cc(=O)oc2c(CNC(C)C(=O)O)c(O)ccc12 (stereo unspecified) | > 200 | 186 | 
15 | c1ccc(P(CC[As](c2ccccc2)c2ccccc2)CC[As](c2ccccc2)c2ccccc2)cc1 | > 20.9 | 2.14 | 
16 | CN(C)c1ccc(/C=C/C(=O)/C=C/c2ccc(N(C)C)cc2)cc1 | > 4.27 | > 4.27 | 
17 | Cc1ccc2c(=O)c3cccc(CC(=O)O)c3[nH]c2c1C | > 200 | 47.9 | 
18 | CCC/C(Cl)=N\OC(=O)Nc1cccc(C(F)(F)F)c1 | > 200 | 6.76 | 
19 | C[C@H](COCP(=O)(O)O)n1cnc2c(N)ncnc21 | > 200 | > 200 | 
20 | O=C(/C=C/c1ccc(O)c(O)c1)OC(Cc1ccc(O)c(O)c1)C(=O)O (stereo unspecified) | > 200 | 26.3 | 

Row | SMILES | EC50 [µM] | IC50 [µM] | outcome
21 | Cc1ccc(N=C2S/C(=C3/CCC=C3N3CCOCC3)N(c3ccc(Cl)cc3)C2=Nc2ccc(C)cc2)cc1 | > 200 | > 200 | 
22 | C[Si](C)(C)/C(Br)=C\CCN1C(=O)CCC1O (stereo unspecified) |  |  | inactive
23 | COC(=O)c1c(CC(=O)O)oc2c1CCCC2 |  |  | inactive
24 | CC(C)(C)C1CC[C@H]2c3c([nH]c4ccccc34)[C@H]3C(=O)N(c4ccc(F)cc4)C(=O)[C@H]3[C@H]2C1 (stereo partly specified) | > 11.7 | > 11.7 | 
25 | Cc1c(-c2ccccc2)c(-c2ccc(OCCN(C)C)cc2)n2ccccc12 | > 200 | 10 | 
26 | O=C1/C(=C/c2cccc(Cl)c2)Cc2ccccc21 | > 28.2 | > 28.2 | 
27 | CCOC(=O)CN1C(=O)Cc2ccccc21 | > 200 | 97.7 | 
28 | O=C1C=C(NC(=O)C2CCCCC2)c2ncccc2C1=O |  |  | inactive
29 | COC1(CC[C@H](C)COC2OC(CO)C(O)C(O)C2O)O[C@H]2C[C@H]3[C@@H]4CC=C5C[C@@H](OC6OC(CO)C(O)C(OC7OC(CO)C(O)C(O)C7O)C6OC6OC(C)C(O)C(O)C6O)CC[C@]5(C)[C@H]4CC[C@]3(C)[C@H]2[C@@H]1C (stereo partly specified) | > 200 | 3.89 | 
30 | COc1ccc(C2=CC(C(C)=C(C(N)=O)C(N)=O)C=C(c3ccc(Br)cc3)C2)c(OC)c1 (stereo unspecified) | > 200 | 75.9 | 
31 | CCNc1ccc(-c2ccccc2)nc1N1CCN(C(=O)c2cc3cc(OC)ccc3[nH]2)CC1 | > 200 | 24 | 
32 | CC(C)OP(=O)(OC(C)C)C(N(C)C)P(=O)(OC(C)C)OC(C)C.[CH3][Sn]([CH3])([Cl])[Cl] | > 302 | 17.4 | 
33 | CSc1cc(-c2ccccc2)s[s+]1 (tested in a mixture with another compound) | > 200 | 35.5 | 
34 | O=C1C2CCCC1C1/C(=[N+](/[O-])O)C=C([N+](=O)[O-])C2C1[N+](=O)[O-] (stereo unspecified) | > 234 | > 234 | 
35 | Cc1cc(-c2ccc(N=Nc3ccc4c(S(=O)(=O)[O-])cc(S(=O)(=O)[O-])c(N)c4c3O)c(C)c2)ccc1N=Nc1ccc2c(S(=O)(=O)[O-])cc(S(=O)(=O)[O-])c(N)c2c1O.[Ga] | 1.12 | 38.9 | 
36 | CSc1nc2c(=S)[nH]c(=S)[nH]c2s1 | > 105 | > 105 | 
37 | O=C(/C=C1/Nc2ccc([N+](=O)[O-])cc2NC1O)c1cccc([N+](=O)[O-])c1 (stereo unspecified) | > 20.4 | > 20.4 | 
38 | COc1ccc(C(=O)C2=NON3OC23C(=O)c2ccc(OC)cc2)cc1 (stereo unspecified) | > 38 | 6.76 | 
39 | CC1(C)N=C(/C=N/O)C(C)(C)N1O | > 200 | > 200 | 
40 | COc1cc2cccc(N)c2cc1OC | > 200 | > 200 | 
